Assay results from patent US20240327393A1 (SIRONAX LTD., priority 2021, published 2024).

System: HT-1080 (ATCC, CCL-121) cells
Assay: HT-1080 cell viability assay with ferroptosis inducer RSL3 (Cell Titer-Glo)
Assay type: cell-based
Conditions: Homo sapiens; HT-1080 cells treated with RSL3; 3-fold, 10-point dilution, 1.1 μM highest concentration; Table 2; read-out: EC50 (nM), ferroptosis inhibitory activity
In short: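 EC50 was derived by sigmoidal dose-response regression of CellTiter-Glo luminescence viability, expressed relative to untreated wells. Compounds were tested in a ten-point, threefold dilution series (highest 1.1 μM) in the presence of the ferroptosis inducer RSL3. HT-1080 cells had been seeded at 6000 per well and grown overnight first.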

In the case of `CN1C(=O)COc2cc(Nc3ccc(N4CC5CC(C4)O5)c(F)c3)ccc21` [Compound 99, 7-((4-(6-oxa-3-azabicyclo[3.1.1]heptan-3-yl)-3-fluorophenyl)amino)-4-methyl-2H-benzo[b][1,4]oxazin-3(4H)-one], the EC50 is reported as 0.1 to 100 nM.
For `Cc1cc(N2CCC(C(F)(F)F)CC2)ccc1Nc1ccc2c(c1)OCC(=O)N2` [Compound 100, 7-((2-methyl-4-(4-(trifluoromethyl)piperidin-1-yl)phenyl)amino)-2H-benzo[b][1,4]oxazin-3(4H)-one], the EC50 was 0.1 to 100 nM.
In the case of `Cc1cc(Nc2ccc3c(c2)OCC(=O)N3)ccc1N1CCC(C(F)(F)F)CC1` [Compound 101, 7-((3-methyl-4-(4-(trifluoromethyl)piperidin-1-yl)phenyl)amino)-2H-benzo[b][1,4]oxazin-3(4H)-one], the EC50 is reported as 100 to 1000 nM.
`CC1CCN(c2ccc(Nc3ccc4c(c3)N(C)CC(=O)N4C)cc2)CC1` [Compound 102, 1,4-dimethyl-6-((4-(4-methylpiperidin-1-yl)phenyl)amino)-3,4-dihydroquinoxalin-2(1H)-one] was tested, and the EC50 was 0.1 to 100 nM.
Work on `CN1CCN(CC(=O)N2CCc3cc(Nc4ccc(N5CCCCC5)cc4)ccc3C2)CC1` [Compound 103, 2-(4-methylpiperazin-1-yl)-1-(6-((4-(piperidin-1-yl)phenyl)amino)-3,4-dihydroisoquinolin-2(1H)-yl)ethan-1-one] yielded an EC50 of 100 to 1000 nM.
For `c1ccc(Nc2ccc3c(c2)CCNC3)cc1` [Compound 104, N-phenyl-1,2,3,4-tetrahydroisoquinolin-6-amine], the EC50 was 0.1 to 100 nM.
For `CCN1CCc2cc(Nc3ccccc3)ccc2C1` [Compound 105, 2-ethyl-N-phenyl-1,2,3,4-tetrahydroisoquinolin-6-amine], the EC50 was 0.1 to 100 nM.
Compound `CC(=O)N1CCc2cc(Nc3ccccc3)ccc2C1` [Compound 106, 1-(6-(phenylamino)-3,4-dihydroisoquinolin-2(1H)-yl)ethan-1-one] has an EC50 of 0.1 to 100 nM.
In the case of `CN1CCN(CC(=O)N2CCc3cc(Nc4ccccc4)ccc3C2)CC1` [Compound 107, 2-(4-methylpiperazin-1-yl)-1-(6-(phenylamino)-3,4-dihydroisoquinolin-2(1H)-yl)ethan-1-one], the EC50 is reported as 0.1 to 100 nM.
`CN1CCN(CC(=O)N2CCc3cc(Nc4ccc(N5CCC(C(F)(F)F)CC5)c(F)c4)ccc3C2)CC1` [Compound 108, 1-(6-((3-fluoro-4-(4-(trifluoromethyl)piperidin-1-yl)phenyl)amino)-3,4-dihydroisoquinolin-2(1H)-yl)-2-(4-methylpiperazin-1-yl)ethan-1-one] showed an EC50 of 0.1 to 100 nM.
Compound `CN1CC(=O)N(C)c2ccc(Nc3ccc(N4CCC(C(F)(F)F)CC4)cc3)cc21` [Compound 109, 1,4-dimethyl-6-((4-(4-(trifluoromethyl)piperidin-1-yl)phenyl)amino)-3,4-dihydroquinoxalin-2(H)-one] has an EC50 of 0.1 to 100 nM.
Compound `Cn1c(=O)c(=O)n(C)c2cc(Nc3ccc(N4CCC(C(F)(F)F)CC4)cc3)ccc21` [Compound 110, 1,4-dimethyl-6-((4-(4-(trifluoromethyl)piperidin-1-yl)phenyl)amino)-1,4-dihydroquinoxaline-2,3-dione] has an EC50 of 0.1 to 100 nM.
In the case of `Cn1c(=O)cnc2cc(Nc3ccc(N4CCC(C(F)(F)F)CC4)cc3)ccc21` [Compound 111, 1-methyl-6-((4-(4-(trifluoromethyl)piperidin-1-yl)phenyl)amino) quinoxalin-2(1H)-one], the EC50 is reported as 0.1 to 100 nM.
Work on `CN1Cc2cc(Nc3ccc(N4CCC(C(F)(F)F)CC4)cc3)ccc2N(C)C1=O` [Compound 112, 1,3-dimethyl-6-((4-(4-(trifluoromethyl)piperidin-1-yl)phenyl)amino)-3,4-dihydroquinazolin-2(1H)-one] yielded an EC50 of 0.1 to 100 nM.
`Cc1nc(=O)n(C)c2ccc(Nc3ccc(N4CCC(C(F)(F)F)CC4)cc3)cc12` [Compound 113, 1,4-dimethyl-6-((4-(4-(trifluoromethyl)piperidin-1-yl)phenyl)amino) quinazolin-2(1H)-one] gave an EC50 of 0.1 to 100 nM.
With `CN1CCOc2cc(Nc3ccc(N4CCC(C(F)(F)F)CC4)cc3)ccc21` [Compound 114, 4-methyl-N-(4-(4-(trifluoromethyl)piperidin-1-yl)phenyl)-3,4-dihydro-2H-benzo[b][1,4]oxazin-7-amine] the EC50 was 0.1 to 100 nM.
In the case of `CC1CCN(c2ccc(Nc3ccc4c(c3)ncc(=O)n4C)cc2)CC1` [Compound 115, 1-methyl-6-((4-(4-methylpiperidin-1-yl)phenyl)amino)quinoxalin-2(1H)-one], the EC50 is reported as 0.1 to 100 nM.
For `CCn1c(=O)cnc2cc(Nc3ccc(N4CCC(C(F)(F)F)CC4)cc3)ccc21` [Compound 116, 1-ethyl-6-((4-(4-(trifluoromethyl)piperidin-1-yl)phenyl)amino) quinoxalin-2(1H)-one], the EC50 was 0.1 to 100 nM.
With `CCn1c(=O)cnc2cc(Nc3ccc(N4CCC(C)CC4)cc3)ccc21` [Compound 117] the EC50 was 0.1 to 100 nM.
`Cc1cc(=O)oc2cc(Nc3ccc(C(C)(C)C)cc3)ccc12` [Compound 118, 7-((4-(tert-butyl)phenyl)amino)-4-methyl-2H-chromen-2-one] was tested, and the EC50 was 0.1 to 100 nM.
With `Cc1cc(=O)oc2cc(Nc3ccc(N4CCC(C(F)(F)F)CC4)cc3)ccc12` [Compound 119, 4-methyl-7-((4-(4-(trifluoromethyl)piperidin-1-yl)phenyl)amino)-2H-chromen-2-one] the EC50 was 0.1 to 100 nM.
In the case of `CC(C)(C)c1ccc(Nc2ccc3oc(=O)ccc3c2)cc1` [Compound 120, 6-((4-(tert-butyl)phenyl)amino)-2H-chromen-2-one], the EC50 is reported as 0.1 to 100 nM.
`CC(C)(C)c1ccc(Nc2ccc3c(CCN)cc(=O)oc3c2)cc1` [Compound 121, 4-(2-aminoethyl)-7-((4-(tert-butyl)phenyl)amino)-2H-chromen-2-one] showed an EC50 of 0.1 to 100 nM.
In the case of `NCCc1cc(=O)oc2cc(Nc3ccc(N4CCC(C(F)(F)F)CC4)cc3)ccc12` [Compound 122, 4-(2-aminoethyl)-7-((4-(4-(trifluoromethyl)piperidin-1-yl)phenyl)amino)-2H-chromen-2-one], the EC50 is reported as 0.1 to 100 nM.
`O=c1ccc2cc(Nc3ccc(N4CCC(C(F)(F)F)CC4)cc3)ccc2o1` [Compound 123, 6-((4-(4-(trifluoromethyl)piperidin-1-yl)phenyl)amino)-2H-chromen-2-one] gave an EC50 of 0.1 to 100 nM.
With `CC(C)(C)c1ccc(Nc2ccc3cc(CCN)c(=O)oc3c2)cc1` [Compound 124, 3-(2-aminoethyl)-7-((4-(tert-butyl)phenyl)amino)-2H-chromen-2-one] the EC50 was 0.1 to 100 nM.
Work on `NCCc1cc2ccc(Nc3ccc(N4CCC(C(F)(F)F)CC4)cc3)cc2oc1=O` [Compound 125, 3-(2-aminoethyl)-7-((4-(4-(trifluoromethyl)piperidin-1-yl)phenyl)amino)-2H-chromen-2-one] yielded an EC50 of 0.1 to 100 nM.
With `Cc1cc2c(C)cc(=O)oc2cc1Nc1ccc(N2CCC(C(F)(F)F)CC2)cc1` [Compound 126, 4,6-dimethyl-7-((4-(4-(trifluoromethyl)piperidin-1-yl)phenyl)amino)-2H-chromen-2-one] the EC50 was 0.1 to 100 nM.
`CN1C(=O)CCc2cc(Nc3ccc(N4CCC(C(F)(F)F)CC4)cc3)ccc21` [Compound 127, 1-methyl-6-((4-(4-(trifluoromethyl)piperidin-1-yl)phenyl)amino)-3,4-dihydroquinolin-2(1H)-one] showed an EC50 of 0.1 to 100 nM.
Work on `CN1C(=O)OCc2cc(Nc3ccc(N4CCC(C(F)(F)F)CC4)cc3)ccc21` [Compound 128, 1-methyl-6-((4-(4-(trifluoromethyl)piperidin-1-yl)phenyl)amino)-1,4-dihydro-2H-benzo[d][1,3]oxazin-2-one] yielded an EC50 of 0.1 to 100 nM.
With `COC1(C(F)(F)F)CCN(c2ccc(Nc3ccc4c(c3)OCC(=O)N4C)c(C)c2)CC1` [Compound 129, 7-((4-(4-methoxy-4-(trifluoromethyl)piperidin-1-yl)-2-methylphenyl)amino)-4-methyl-2H-benzo[b][1,4]oxazin-3(4H)-one] the EC50 was 0.1 to 100 nM.
With `Cc1cc(N2CCC(O)(C(F)(F)F)CC2)ccc1Nc1ccc2c(c1)OCC(=O)N2C` [Compound 130, 7-((4-(4-hydroxy-4-(trifluoromethyl)piperidin-1-yl)-2-methylphenyl)amino)-4-methyl-2H-benzo[b][1,4]oxazin-3(4H)-one] the EC50 was 0.1 to 100 nM.
`COc1cc(Nc2ccc3c(c2)OCC(=O)N3)cnc1N1CCC(C(F)(F)F)CC1` [Compound 131, 7-((5-methoxy-6-(4-(trifluoromethyl)piperidin-1-yl)pyridin-3-yl)amino)-2H-benzo[b][1,4]oxazin-3(4H)-one] gave an EC50 of 0.1 to 100 nM.
For `Cc1cc(Nc2cc(F)c3c(c2)OCC(=O)N3C)ccc1N1CC(C)OC(C)C1` (stereo not shown) [Compound 132, 7-((4-(2,6-dimethylmorpholino)-3-methylphenyl)amino)-5-fluoro-4-methyl-2H-benzo[b][1,4]oxazin-3(4H)-one], the EC50 was 0.1 to 100 nM.
For `CC1CN(c2ccc(Nc3ccc4nnn(C)c4c3)cc2)CC(C)O1` (stereo not shown) [Compound 133, N-(4-(2,6-dimethylmorpholino)phenyl)-1-methyl-1H-benzo[d][1,2,3]triazol-6-amine], the EC50 was 100 to 1000 nM.
In the case of `CN(CC(F)(F)F)c1ccc(Nc2ccc3c(c2)OCC(=O)N3C)cc1` [Compound 134], the EC50 is reported as 0.1 to 100 nM.
With `CC(C)(C)c1ccc(Nc2ccc3c(c2)OCC(=O)N3)cc1` [Compound 135, 7-((4-(tert-butyl)phenyl)amino)-2H-benzo[b][1,4]oxazin-3(4H)-one] the EC50 was 0.1 to 100 nM.
Compound `O=C1COc2cc(Nc3cc(F)c(N4CCC(C(F)(F)F)CC4)c(F)c3)ccc2N1` [Compound 136, 7-((3,5-difluoro-4-(4-(trifluoromethyl)piperidin-1-yl)phenyl)amino)-2H-benzo[b][1,4]oxazin-3(4H)-one] has an EC50 of 0.1 to 100 nM.
For `CN1C(=O)NCc2cc(Nc3ccc(N4CCC(C(F)(F)F)CC4)cc3)ccc21` [Compound 137, 1-methyl-6-((4-(4-(trifluoromethyl)piperidin-1-yl)phenyl)amino)-3,4-dihydroquinazolin-2(1H)-one], the EC50 was 0.1 to 100 nM.
In the case of `Cc1cc(Nc2ccc3c(c2)OCC(=O)N3)ccc1N1CC(C)OC(C)C1` (stereo not shown) [Compound 138, 7-((4-(2,6-dimethylmorpholino)-3-methylphenyl)amino)-2H-benzo[b][1,4]oxazin-3(4H)-one], the EC50 is reported as 0.1 to 100 nM.
